From US9233979B2, “Compounds that are ERK inhibitors” (Merck Sharp & Dohme Corp., priority 2012, dated 2016) come the findings set out here.

For one assay, the target named is phosphorylated active hERK2 enzyme (Homo sapiens (Human), UniProt P28482). Description: Active Human ERK2 (hERK2) Activity Assay (IMAP-FP). The format is biochemical. The note with it: Table 5, 0.5 nM hERK2, 30 μM ATP, 10 point titration, read-out: AERK2 IC50. The method, boiled down: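 IMAP detection beads in buffer with 24 mM NaCl stopped the reaction, and fluorescence polarization was read after 60 min binding.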
Sequence of phosphorylated active hERK2 enzyme (P28482 whole entry): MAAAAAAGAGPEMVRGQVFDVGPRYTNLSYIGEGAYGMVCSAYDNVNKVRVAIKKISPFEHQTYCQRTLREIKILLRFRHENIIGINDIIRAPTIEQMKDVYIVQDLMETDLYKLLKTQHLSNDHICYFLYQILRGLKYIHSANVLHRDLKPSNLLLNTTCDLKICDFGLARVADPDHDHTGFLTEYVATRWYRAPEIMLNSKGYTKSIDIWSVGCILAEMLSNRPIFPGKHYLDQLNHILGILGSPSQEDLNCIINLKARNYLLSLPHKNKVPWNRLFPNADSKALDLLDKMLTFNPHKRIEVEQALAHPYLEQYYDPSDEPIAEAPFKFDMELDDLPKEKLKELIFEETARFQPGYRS
Turning to `CCNc1n[nH]c2cc(NC(=O)N[C@H](C)c3ccccc3)ncc12` [Example 2, (R)-1-(3-(Ethylamino)-1H-pyrazolo[4,3-c]pyridin-6-yl)-3-(1-phenylethyl)urea], the IC50 came to 1.13 nM.

For the compound `COC[C@@H](NC(=O)Nc1cc2[nH]nc(N3CCC3)c2cn1)c1ccccc1` [Example 24, 1-(3-azetidin-1-yl-1H-pyrazolo[4,3-c]pyridin-6-yl)-3-[(1S)-2-methoxy-1-phenylethyl]urea], the half-inhibitory concentration (IC50) is 4.8 nM.

Take `C[C@@H](NC(=O)Nc1cc2[nH]nc(N)c2cn1)c1ccc(F)cc1` [Example 44, 1-(3-amino-1H-pyrazolo[4,3-c]pyridin-6-yl)-3-[(1R)-1-(4-fluorophenyl)ethyl]urea]: the concentration for half-maximal inhibition (IC50) was 2.81 nM.

Consider `COC[C@@H](NC(=O)Nc1cc2[nH]nc(N3CCN(C)CC3)c2cn1)c1ccccc1` [Example 14, 1-[(1S)-2-methoxy-1-phenylethyl]-3-[3-(4-methylpiperazin-1-yl)-1H-pyrazolo[4,3-c]pyridin-6-yl]urea], for which the half-maximal inhibitory concentration (IC50) was found to be 21.8 nM.

For `CN1C[C@H](NC(=O)Nc2cc3[nH]nc(N4CCOCC4)c3cn2)[C@@H](c2ccccc2)C1` [Example 41, 1-[(3R,4S)-1-Methyl-4-phenylpyrrolidin-3-yl]-3-(3-morpholin-4-yl-1H-pyrazolo[4,3-c]pyridin-6-yl)urea], the IC50 was 20.2 nM.

With `C[C@@H](NC(=O)Nc1cc2[nH]nc(N3CCCC3)c2cn1)c1ccccc1` [Example 29, 1-[(1R)-1-phenylethyl]-3-(3-pyrrolidin-1-yl-1H-pyrazolo[4,3-c]pyridin-6-yl)urea], the concentration for half-maximal inhibition (IC50) worked out at 0.82 nM.

As to `COCCNC(=O)Nc1cc2[nH]nc(N3CCOCC3)c2cn1` [Example 20, 1-(2-methoxyethyl)-3-(3-morpholin-4-yl-1H-pyrazolo[4,3-c]pyridin-6-yl)urea], the IC50 stood at 13.6 nM.

On to `COCCNC(=O)Nc1cc2[nH]nc(N3CCC3)c2cn1` [Example 8, 1-(3-azetidin-1-yl-1H-pyrazolo[4,3-c]pyridin-6-yl)-3-(2-methoxyethyl)urea], for which the half-inhibitory concentration (IC50) is 255 nM.

As to `CNc1n[nH]c2cc(NC(=O)N[C@H](C)c3ccccc3)ncc12` [Example 3, 1-[3-(methylamino)-1H-pyrazolo[4,3-c]pyridin-6-yl]-3-[(1R)-1-phenylethyl]urea], the IC50 was 4.87 nM.

The same assay, now with this note: Table 6, 0.5 nM hERK2, 30 μM ATP, 10 point titration, read-out: AERK2 IC50.
Consider `CCNc1n[nH]c2cc(NC(=O)N[C@H](C)C3CCCCC3)ncc12` [Example 230, 1-[(1R)-1-cyclohexylethyl]-3-[3-(ethylamino)-1H-pyrazolo[4,3-c]pyridin-6-yl]urea], for which the IC50 came to 11.7 nM.

Take `Cc1nc(NC(=O)N[C@@H](c2ccccc2)C(C)(C)O)cc2[nH]nc(N3CCOCC3)c12` [Example 107, 1-[(1S)-2-hydroxy-2-methyl-1-phenylpropyl]-3-(4-methyl-3-morpholin-4-yl-1H-pyrazolo[4,3-c]-pyridin-6-yl)urea]: the IC50 turned out to be 0.3 nM.

As to `C[C@@H](NC(=O)Nc1cc2[nH]nc(N[C@@H]3COC[C@@H]3F)c2cn1)c1ccccc1` [Example 84, 1-(3-{[(3R,4R)-4-fluorotetrahydrofuran-3-yl]amino}-1H-pyrazolo[4,3-c]-pyridin-6-yl)-3-[(1R)-1-phenylethyl]urea], the half-inhibitory concentration (IC50) was 4.4 nM.

On to `CC(C)COC(=O)Nc1n[nH]c2cc(NC(=O)N[C@H](C)c3ccccc3)ncc12` [Example 219, 2-methylpropyl [6-({[(1R)-1-phenylethyl}-carbamoyl}amino)-1H-pyrazolo[4,3-c]pyridin-3-yl]-carbamate], for which the IC50 turned out to be 32.5 nM.

For the compound `Nc1n[nH]c2cc(NC(=O)N[C@H](c3ccccc3)[C@H]3CCCO3)ncc12` [Example 154, 1-(3-amino-1H-pyrazolo[4,3-c]pyridin-6-yl)-3-{(R)-phenyl[(2R)-tetrahydrofuran-2-yl]methyl}urea], the half-maximal inhibitory concentration (IC50) came to 435 nM.

`CC(C)(O)[C@@H](NC(=O)Nc1cc2[nH]nc(N3CCC3)c2c(CO)n1)c1ccc(F)cc1` [Example 101, 1-[3-azetidin-1-yl-4-(hydroxymethyl)-1H-pyrazolo[4,3-c]-pyridin-6-yl]-3-[(1S)-1-(4-fluorophenyl)-2-hydroxy-2-methylpropyl]urea]: the IC50 was 0.9 nM.

With `COCCNc1n[nH]c2cc(NC(=O)N[C@H](COC)c3ccccc3)ncc12` [Example 371, 1-{3-[(2-methoxy-ethyl)amino]-1H-pyrazolo[4,3-c]-pyridin-6-yl}-3-[(1S)-2-methoxy-1-phenylethyl]urea], the half-maximal inhibitory concentration (IC50) was found to be 0.7 nM.

In the case of `CC(C)(O)[C@@H](NC(=O)Nc1cc2[nH]nc(N3CC(F)(F)C3)c2cn1)c1ccccc1` [Example 367, 1-[3-(3,3-difluoro-azetidin-1-yl)-1H-pyrazolo[4,3-c]-pyridin-6-yl]-3-[(1S)-2-hydroxy-2-methyl-1-phenylpropyl]urea], the IC50 amounted to 0.6 nM.

As to `COC[C@@H](NC(=O)Nc1cc2[nH]nc(Nc3ccccc3F)c2cn1)c1ccccc1` [Example 384, 1-{3-[(2-fluoro-phenyl)amino]-1H-pyrazolo[4,3-c]-pyridin-6-yl}-3-[(1S)-2-methoxy-1-phenylethyl]urea], the IC50 stood at 9.4 nM.

Turning to `C[C@H]1Cc2nc(NC(=O)N[C@H](C)c3ccccc3)cc3[nH]nc(c23)N1` [Example 139, 1-((S)-4-methyl-1,3,4,5-tetrahydropyrazolo[3,4,5-de][1,6]naphthyridin-7-yl)-3-((R)-1-phenylethyl)urea], the 50% inhibitory concentration (IC50) stood at 5.5 nM.

Regarding `C[C@@H](NC(=O)Nc1cc2[nH]nc(NC3CCCCC3)c2cn1)c1ccccc1` [Example 187, 1-[3-(cyclohexyl-amino)-1H-pyrazolo[4,3-c]pyridin-6-yl]-3-[(1R)-1-phenylethyl]urea], the half-inhibitory concentration (IC50) turned out to be 6.8 nM.

For `CC(Nc1n[nH]c2cc(NC(=O)N[C@H](C)c3ccccc3)ncc12)C1CCOCC1` (stereo partly drawn) [Example 171, 1-[(1R)-1-phenylethyl]-3-(3-{[1-(tetrahydro-2H-pyran-4-yl)-ethyl]amino}-1H-pyrazolo[4,3-c]-pyridin-6-yl)urea], the concentration for half-maximal inhibition (IC50) was found to be 4.1 nM.

As to `C[C@@H](NC(=O)Nc1cc2[nH]nc(N3CC(O)C3)c2cn1)c1ccccc1` [Example 79, 1-[3-(3-hydroxy-azetidin-1-yl)-1H-pyrazolo[4,3-c]-pyridin-6-yl]-3-[(1R)-1-phenylethyl]urea], the IC50 is 9.7 nM.

In the case of `CCNc1n[nH]c2cc(NC(=O)NCc3ccccc3OC(F)F)ncc12` [Example 228, 1-[2-(difluoro-methoxy)benzyl]-3-[3-(ethylamino)-1H-pyrazolo[4,3-c]pyridin-6-yl]urea], the half-maximal inhibitory concentration (IC50) amounted to 3.5 nM.

Turning to `Nc1n[nH]c2cc(NC(=O)N[C@@H](c3ccccc3)[C@@H]3CCCO3)ncc12` [Example 152, 1-(3-amino-1H-pyrazolo[4,3-c]pyridin-6-yl)-3-{(S)-phenyl[(2S)-tetrahydrofuran-2-yl]methyl}urea], the IC50 amounted to 0.9 nM.

On to `COC(=O)Nc1n[nH]c2cc(NC(=O)N[C@H](C)c3ccc(Cl)nc3)ncc12` [Example 311, methyl [6-({[(1R)-1-(6-chloropyridin-3-yl)ethyl]-carbamoyl}amino)-1H-pyrazolo[4,3-c]pyridin-3-yl]-carbamate], for which the half-maximal inhibitory concentration (IC50) was 19.1 nM.

As to `CCNc1n[nH]c2cc(NC(=O)N[C@@H](c3ccccc3)[C@H]3CCCO3)ncc12` [Example 149, 1-[3-(ethylamino)-1H-pyrazolo[4,3-c]pyridin-6-yl]-3-{(S)-phenyl[(2R)-tetrahydrofuran-2-yl]methyl}urea], the IC50 was 0.6 nM.

On to `COC[C@@H](NC(=O)Nc1cc2[nH]nc(N3CCC(O)CC3)c2cn1)c1ccccc1` [Example 410, 1-[3-(4-hydroxypiperidin-1-yl)-1H-pyrazolo[4,3-c]-pyridin-6-yl]-3-[(1S)-2-methoxy-1-phenylethyl]urea], for which the IC50 amounted to 1.2 nM.

Take `C[C@@H](NC(=O)Nc1cc2[nH]nc(NC(=O)CC(F)(F)F)c2cn1)c1ccccc1` [Example 199, 3,3,3-trifluoro-N-[6-({[(1R)-1-phenylethyl]-carbamoyl}amino)-1H-pyrazolo[4,3-c]-pyridin-3-yl]-propanamide]: the IC50 is 1.1 nM.

In the case of `C[C@@H](NC(=O)Nc1cc2[nH]nc(NC3CC(N)C3)c2cn1)c1ccccc1` (stereo partly drawn) [Example 216, 1-{3-[(3-amino-cyclobutyl)amino]-1H-pyrazolo[4,3-c]pyridin-6-yl}-3-[(1R)-1-phenylethyl]urea], the IC50 turned out to be 12 nM.

As for `CCNc1n[nH]c2cc(NC(=O)N[C@H](C)c3ccc(F)c(Cl)c3)ncc12` [Example 245, 1-[(1R)-1-(3-chloro-4-fluorophenyl)ethyl]-3-[3-(ethylamino)-1H-pyrazolo[4,3-c]pyridin-6-yl]urea], the IC50 is 6.7 nM.

Turning to `CC(C)(O)[C@@H](NC(=O)Nc1cc2[nH]nc(NC(=O)N3C[C@H]4COC[C@H]4C3)c2cn1)c1ccc(F)cc1` [Example 457, (3aR,6aS)-N-(6-(3-((S)-1-(4-fluorophenyl)-2-hydroxy-2-methylpropyl)-ureido)-1H-pyrazolo[4,3-c]-pyridin-3-yl)-tetrahydro-1H-furo[3,4-c]pyrrole-5(3H)-carboxamide], the concentration for half-maximal inhibition (IC50) turned out to be 3.7 nM.

For the compound `COC[C@@H](NC(=O)Nc1cc2[nH]nc(NC(=O)C(C)C)c2cn1)c1ccccc1` [Example 319, (S)-N-(6-(3-(2-methoxy-1-phenylethyl)ureido)-1H-pyrazolo[4,3-c]pyridin-3-yl)-isobutyramide], the concentration for half-maximal inhibition (IC50) came out at 0.4 nM.

As for `COC(=O)Nc1n[nH]c2cc(NC(=O)N[C@@H](c3ccccc3)[C@H]3CCCO3)ncc12` [Example 290, methyl {6-[({(S)-phenyl[(2R)-tetra-hydrofuran-2-yl]-methyl}carbamoyl)amino]-1H-pyrazolo[4,3-c]-pyridin-3-yl}-carbamate], the IC50 is 0.6 nM.

With `CCNc1n[nH]c2cc(NC(=O)N[C@@H]3CN(C)C[C@H]3c3ccccc3)ncc12` [Example 253, 1-[3-(ethylamino)-1H-pyrazolo[4,3-c]pyridin-6-yl]-3-[(3S,4R)-1-methyl-4-phenylpyrrolidin-3-yl]urea], the 50% inhibitory concentration (IC50) was found to be 1 nM.
